Results taken from article PMC6708471 (Cell calcium, 2019).

How the values were obtained:
[1] = biological target: T1, calmodulin (CaM) (Homo sapiens, UniProt P0DP25); assay: […]-1H HSQC NMR titration; type: binding
[2] = biological target: T1, calmodulin (CaM); assay: X-ray crystal structure; type: biochemical

SMILES | 15N-1H HSQC NMR titration (intermediate exchange, modest affinity) [1] | EC50 [2] [µM]
COc1ccc(S(=O)(=O)Nc2ccccc2CN(C)C/C=C/c2ccc(Cl)cc2)cc1 [KN92] | We found that KN92 also affects the CaM NMR spectrum as many of the cross peaks disappear. | –
COc1ccc(S(=O)(=O)N(CCO)c2ccccc2CN(C)C/C=C/c2ccc(Cl)cc2)cc1 [KN93] | – | 5.1 ± 1.4
